Data from article PMC3092152 (Molecular oral microbiology, 2011).
Where no end group is shown, it is not given here.

B1: lysozyme: host protein tested in preliminary experiments against 16 S. mutans strains (protein, UniProt P61626 19-148, looked up)
Lysozyme C: KVFERCELARTLKRLGMDGYRGISLANWMCLAKWESGYNTRATNYNAGDRSTDYGIFQINSRYWCNDGKTPGAVNACHLSCSALLQDNIADAVACAKRVVRDPQGIRAWVAWRNRCQNRDVRQYVQGCGV

Test system: S. mutans clinical strains
Assay: alamarBlue antimicrobial susceptibility test
Assay type: cell-based, Streptococcus mutans
Settings: preliminary experiments; 16 S. mutans strains; peptide concentrations 20 μg/ml or below

Molecule | susceptibility of S. mutans strains to the peptide
HBD-1: human β-defensin, salivary cationic antimicrobial peptide (DHYNCVSSGGQCLYSACPIFTKIQGTCYRGKAKCCK; ends and bridges not checked; cysteine pairing not given here; UniProt P60022 33-68, looked up) | no susceptibility
histatin-5 | no susceptibility
B1 | no susceptibility
